Legend:
clinical = conditions: human, in vivo, po
Description: A±5 minutes window permitted till 4 hours PK sample collection. A±10 minutes window permitted for subsequent PK sample collection. Days 3, 8, 15, and 22 of Cycle 1:30 (±10) minutes Predose only. […] A #5 minutes window permitted till 4 hours PK sample collection. A #10 minutes window permitted for subsequent PK sample collection. Days 8, 15, and 22 of Cycle 2:30 (±10) minutes Predose only. Cycle 3 onwards: Predose samples on Day 1.
Pharmacokinetic analysis was performed using non-compartmental analysis. The actual elapsed time from dose was used in the final PK parameter calculations. Plasma concentrations and PK parameters for the compound of Formula I were listed and summarized by dose cohort using descriptive statistics (n, mean, standard deviation, minimum, median, and maximum). Geometric mean and geometric coefficient of variation were calculated for PK parameters. Additionally, mean concentration profiles by dose cohort and cycle were illustrated. Dose proportionality of Cmax and AUC(0-24) was assessed graphically for Cycle 1 and Cycle 2. Dose proportionality was statistically evaluated using the power model approach, whenever the number of patients was at least 3 for a given cohort. Time to steady-state (Ctrough) was evaluated graphically. Differences among dose levels in CL/F and V/F, and dose-normalized Cmax and AUC(0-24) were explored using an analysis of variance.
The PK parameters for the study were summarized by treatment using descriptive (N, n, mean, standard deviation [SD], coefficient of variation [CV] % minimum, median, maximum, geometric mean and CV %) statistics, except for Tmax. For Tmax, the number of subjects, minimum, median, and maximum are reported.

[1] = system: Ph+ CML (CP CML, AP CML and BP CML) and Ph+ ALL; assay: Phase 1/2 dose-escalation and expansion study (Part B): disease response, all subjects; assay type: in vivo
From the text: This was a Phase I/2, open-label, single-agent, multicenter, multi-dose, dose-escalation study in subjects with Philadelphia chromosome-positive Ph+ CML (CP CML, AP CML and BP CML) and Ph+ ALL. The primary objectives of this study were to determine the maximum tolerated dose (MTD; or recommended Phase 2 dose [RP2D]) of the compound of Formula I when administered orally and to evaluate its safety.
For patient selection, key inclusion criteria included men or women aged ≥18 years with Eastern Cooperative Oncology Group performance status 0, 1, or 2 with Ph+ CML (CP CML, AP CML, or BP CML) who are resistant and/or intolerant to ≥3 prior TKIs, having adequate organ and immune system function as indicated by Table 09, obtained ≤2 weeks prior to the administration of the compound of Formula I. Subjects with presence of T3151 mutations were not included in the study.
In this study, the dose-escalation cohort started with an accelerated titration study design (ATD) and shifted to a 3±3 design when subjects in the preceding ATD cohort experienced either grade 2 or higher adverse events (AEs) or dose-limiting toxicity (DLT) during Cycle 1 that was not clearly and incontrovertibly related to the underlying disease or concomitant medications. The DLT period consisted of 28 days (Cycle 1). Subjects experiencing DLTs were managed with dose delays and/or discontinuation and continued in the study until disease progression. Decisions to advance to a succeeding dose level occurred after the evaluation of safety and tolerability data for a given dose level.
Accordingly, the eligible subjects were treated in 4-week cycles of once daily self-administration of the compound of Formula I. The administration was after an overnight fast, or after maintaining approximately 2 hours of fasting before and after the dosing in all cycles.
For the cohorts, where the 3±3 design applies, 3 subjects were enrolled initially. If 2 of these subjects experienced a Grade 2 or more toxicity (that was not clearly and incontrovertibly related to the underlying disease or concomitant medications), subsequent cohorts were escalated according to smaller increments. Further, if there were no DLTs in the first 3 subjects, dose escalation to the next higher dose level was allowed to proceed. If 1 of the 3 subjects experienced a DLT, that dose level was expanded to 6 subjects (3 additional subjects were enrolled). If 2 subjects at a given dose level experienced a DLT, the MTD was considered to have been exceeded. The next lower dose level was expanded to 6 subjects, or if 6 subjects had already been enrolled and no more than 1 of the 6 subjects experienced a DLT, then this lower dose level was considered the MTD. Additional subjects were enrolled in dose escalation cohorts for further assessment of safety and efficacy of the compound of Formula 1 at doses that were tolerated (i.e., doses that have <2 DLTs in 6 enrolled subjects or <1 DLT in 3 enrolled subjects). Thus 204 mg was arrived at as MTD. A subject experiencing a DLT was allowed to continue therapy with a reduced dose. Subjects who experienced a DLT and recovered were treated at the next lower dose level until disease progression or other events requiring further dose reduction existed. For cohorts at Dose Level 2 or higher, a further dose reduction (i.e., up to 2 levels lower than their originally assigned dose) was implemented in the case of a further DLT or other non-DLT events requiring a dose reduction, if and when the event leading to dose reduction returned to Grade 1 or lower in severity. The reduced dose was re-escalated to the original or higher dose (i.e., the dose for which safety had been established in the dose escalation cohort) considering subject safety and response to the compound of Formula I. The subject was discontinued from treatment using the compound of Formula I, if dose reduction below 48 mg was required. […]

For `Cc1ccc(C(=O)NNC(=O)c2c(C)cccc2Cl)cc1C#Cc1cnc2ccccc2c1` [compound of Formula I, N′-(2-chloro-6-methylbenzoyl)-4-methyl-3-[2-(3-quinolyl)ethynyl]-benzohydrazide], the Tmax (clinical) was 1.5 to 2.5 h, the AUC(0-t) (clinical; 204 mg) was 27500 ng·h/mL and the Cmax (clinical; 204 mg) was 3310 ng/mL. The major molecular response ([1]; 18 of the 41 enrolled subjects) was 43.9%, the “Major cytogenetic response (MCyR) as best response” value ([1]; 19 subjects enrolled at 174 mg) was 10 subjects and the “complete cytogenetic response (CCyR)” value ([1]; 19 subjects enrolled at 174 mg) was 9 subjects. The “major hematological response (MaHR) as best response” value ([1]; 19 subjects enrolled at 174 mg) was “all subjects”, the “major molecular response as best response” value ([1]; 19 subjects enrolled at 174 mg) was 4 subjects and the “partial cytogenetic response (PCyR)” value ([1]; 19 subjects enrolled at 174 mg) was 1 subjects. The complete cytogenetic response ([1]; 23 out of 41 enrolled subjects) was 56.1%, the complete hematologic response ([1]; 29 out of 41 enrolled subjects, refractory, 2 or more prior TKIs) was 70.7% and the individual subject outcome ([1]; AP CML, 48 mg escalated, ~24 months, daily dose of 174 mg) was “attained MCyR”. The individual subject outcome ([1]; CP CML, 12 mg escalated to 174 mg) was “achieved and maintained CCyR at doses ≥48 mg”, the individual subject outcome ([1]; CP CML, 24 mg escalated to 126 mg and 174 mg) was “maintain CCyR and molecular response between MMR and M2” and the individual subject outcome ([1]; CP CML, 126 mg reduced to 90 and 66 mg (thrombocytopenia), re-escalated to 126 mg and 174 mg) was “tolerated the re-escalated higher dose well”. The individual subject outcome ([1]; CP CML, 174 mg reduced to 126 mg (grade 3/4 deranged pancreatic enzymes)) was “complete cytogenetic response and major molecular response”, the individual subject outcome ([1]; CP CML, 204 mg reduced to 174 mg (memory loss)) was “maintains a complete cytogenetic response and major molecular response” and the individual subject outcome ([1]; CP CML, 204 mg reduced to 174 mg (severe thrombocytopenia)) was “partial cytogenetic response and improved molecular response”. For the same molecule, the individual subject outcome ([1]; CP CML, 3 prior TKIs incl. Ponatinib, 48 mg escalated to 174 mg) was “re-attained major molecular and cytogenetic responses”, the individual subject outcome ([1]; CP CML, 4 prior TKIs, 48 mg escalated to 90 mg and 174 mg) was “maintain complete cytogenetic and major molecular responses” and the individual subject outcome ([1]; CP CML, 4 prior TKIs, 66 mg escalated to 90 mg) was “Ph+ cells decreased to minimal cytogenetic response”. For the same molecule, the individual subject outcome ([1]; CP CML, 6 prior TKIs, 174 mg escalated to 204 mg) was “improvement in cytogenetic response to minor cytogenetic response”, the individual subject outcome ([1]; CP CML, F317L, 66 mg reduced to 48 mg (back pain of grade 2)) was “maintained CCyR and MMR at 48 mg dose for ˜2.5 years” and the individual subject outcome ([1]; CP CML, M351T, 174 mg escalated to 204 mg at cycle 7, cycle 22) was “maintaining a complete hematological response and stable disease”. The individual subject outcome ([1]; donor one CP CML, 2 prior TKIs, 174 mg escalated to 204 mg) was “maintaining a hematological response”, the individual subject outcome ([1]; donor two CP CML, 2 prior TKIs, 174 mg escalated to 204 mg) was “improvement in cytogenetic response to partial cytogenetic response and improved molecular response” and the highest efficacious dose ([1]; human, in vivo) was 204 mg. For the same molecule, the “lowest dose observed to be therapeutically efficacious” value ([1]; human, in vivo) was 48 mg, the “best cytogenetic response, Ph+” value ([1]; one AP CML subject, Y253F, 48 mg escalated to 204 mg, 39 cycles, PCyR) was 10% and the “best molecular response, BCR-ABL” value ([1]; one AP CML subject, Y253F, at 204 mg, 36 cycles) was 0.931 % IS. The individual subject outcome ([1]; subject at 66 mg, F317L with ACA) was “CCyR in cycle 7 and MMR in cycle 4” and the “duration of maintained disease response at the lower dose” value ([1]; subject with F317L, reduced from 66 mg to 48 mg) was “about 2.5 years”.

Reference: patent US20260069584A1, “METHODS OF TREATING CHRONIC MYELOID LEUKEMIA USING THE TYROSINE KINASE INHIBITOR VODOBATINIB” (Sun Pharma Advanced Research Company Ltd., priority 2022, published 2026)
